Measurements taken from patent US7524853B2 (Solvay Pharmaceuticals B.V., priority 2003, dated 2009).

Legend:
Assay type in all cases: cell-based
[1] = molecular target: T1, 17β-hydroxysteroid dehydrogenase type 1 (17β-HSD type 1) (Homo sapiens, UniProt P14061); assay: Inhibition of 17β-HSD type 1 in MCF-7 cells stably expressing the isoenzyme (tritium labeled estrone conversion, HPLC); settings: MCF7, MCF-7 cells expressing 17β-HSD type 1, 2 nM tritium labeled estrone; for inhibition at 1 µM: 1 μM test compound, read-out: % Inhibition HSD1 1 μM; for inhibition at 10 µM: 10 μM test compound, read-out: % Inhibition HSD1 10 μM
T1 construct: expressed in transfected cells; host or cells: MCF-7
T1 sequence (P14061 1-328): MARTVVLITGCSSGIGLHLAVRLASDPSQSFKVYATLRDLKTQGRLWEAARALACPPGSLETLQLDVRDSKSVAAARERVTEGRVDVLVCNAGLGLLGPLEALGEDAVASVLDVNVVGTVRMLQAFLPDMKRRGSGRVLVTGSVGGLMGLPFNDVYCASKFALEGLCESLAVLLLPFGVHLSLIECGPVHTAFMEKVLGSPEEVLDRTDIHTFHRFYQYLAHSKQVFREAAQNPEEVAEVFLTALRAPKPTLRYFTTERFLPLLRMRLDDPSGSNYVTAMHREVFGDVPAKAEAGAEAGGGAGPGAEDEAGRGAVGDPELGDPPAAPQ
Outline: (§1)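 Cells: stable MCF-7 transfectants per isoenzyme. Step one, add compound (two concentrations) plus 2 nM labelled substrate to growth medium. Step two, remove medium at a set time and stop with trichloroacetic acid. Step three, quantify conversion by HPLC with flow scintillation.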

[2] = molecular target: T2, 17β-hydroxysteroid dehydrogenase type 2 (17β-HSD type 2) (Homo sapiens, UniProt P37059); assay: Inhibition of 17β-HSD type 2 in MCF-7 cells stably expressing the isoenzyme (tritium labeled estradiol conversion, HPLC); settings: MCF7, MCF-7 cells expressing 17β-HSD type 2, 2 nM tritium labeled estradiol; for inhibition at 1 µM: 1 μM test compound, read-out: % Inhibition HSD2 1 μM; for inhibition at 10 µM: 10 μM test compound, read-out: % Inhibition HSD2 10 μM
T2 construct: expressed in transfected cells; host or cells: MCF-7
T2 sequence (P37059 1-387): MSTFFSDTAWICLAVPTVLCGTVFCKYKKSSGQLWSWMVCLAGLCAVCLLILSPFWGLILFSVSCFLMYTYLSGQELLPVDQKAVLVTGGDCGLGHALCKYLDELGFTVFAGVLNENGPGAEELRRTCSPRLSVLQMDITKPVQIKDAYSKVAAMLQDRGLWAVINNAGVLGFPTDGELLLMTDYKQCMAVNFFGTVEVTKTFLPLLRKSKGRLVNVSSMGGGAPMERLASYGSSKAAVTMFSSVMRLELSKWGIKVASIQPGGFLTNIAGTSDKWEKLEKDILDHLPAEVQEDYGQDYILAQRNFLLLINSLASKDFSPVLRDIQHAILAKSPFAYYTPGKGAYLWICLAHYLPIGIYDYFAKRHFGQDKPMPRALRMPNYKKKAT
Outline: as §1

[3] = molecular target: T3, 17β-hydroxysteroid dehydrogenase type 3 (17β-HSD type 3) (Homo sapiens, UniProt P37058); assay: Inhibition of 17β-HSD type 3 in MCF-7 cells stably expressing the isoenzyme (tritium labeled androstenedione conversion, HPLC); settings: MCF7, MCF-7 cells expressing 17β-HSD type 3, 2 nM tritium labeled androstenedione; for inhibition at 1 µM: 1 μM test compound, read-out: % Inhibition HSD3 1 μM; for inhibition at 10 µM: 10 μM test compound, read-out: % Inhibition HSD3 10 μM
T3 construct: expressed in transfected cells; host or cells: MCF-7
T3 sequence (P37058 1-310): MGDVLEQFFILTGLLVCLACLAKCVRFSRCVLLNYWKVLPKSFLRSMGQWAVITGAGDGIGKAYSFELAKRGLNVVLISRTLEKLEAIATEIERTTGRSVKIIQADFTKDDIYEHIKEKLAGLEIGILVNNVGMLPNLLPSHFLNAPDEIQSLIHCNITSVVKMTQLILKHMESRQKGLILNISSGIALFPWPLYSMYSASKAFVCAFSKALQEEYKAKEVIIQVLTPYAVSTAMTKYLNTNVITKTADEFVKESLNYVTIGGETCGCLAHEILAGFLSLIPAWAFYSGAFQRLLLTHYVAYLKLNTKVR
Outline: as §1

Row | SMILES | inhibition at 1 µM [1] | inhibition at 10 µM [1] | inhibition at 1 µM [2] | inhibition at 10 µM [2] | inhibition at 1 µM [3] | inhibition at 10 µM [3]
1 | COc1cccc(-c2nc3sc4c(c3c(=O)n2Cc2ccccc2)CCCC4)c1 [No. 78, 3-Benzyl-2-(m-methoxyphenyl)-5,6,7,8-tetrahydro-3H-benzo[4,5]thieno[2,3-d]pyrimidin-4-one] | 7.1% | 28.5% | 9.1% | 7.8% | -4.3% | 27.6%
2 | COc1ccc(-c2nc3sc4c(Oc5ccccc5)c(C)ccc4c3c(=O)n2Cc2ccccc2)cc1 [No. 21, 3-Benzyl-7-methyl-2-(p-methoxyphenyl)-8-phenoxy-3H-benzo[4,5]thieno[2,3-d]pyrimidin-4-one] | -1.8% | -4.4% | -0.8% | 12.7% | -4.8% | 6.4%
3 | COc1cc(-c2nc3sc4c(c3c(=O)n2CC(C)C)CCCC4)cc(OC)c1OC [No. 113, 3-Isobutyl-2-(3,4,5-trimethoxyphenyl)-5,6,7,8-tetrahydro-3H-benzo[4,5]thieno[2,3-d]pyrimidin-4-one] | 22.2% | 57.6% | 8.2% | 7.7% | 2.7% | 48.9%
4 | COCc1nc2sc3c(c2c(=O)n1Cc1ccccc1)CCCC3 [No. 27, 3-Benzyl-2-methoxymethyl-5,6,7,8-tetrahydro-3H-benzo[4,5]thieno[2,3-d]pyrimidin-4-one] | 11.2% | 32.3% | 8.5% | 7.2% | -14.4% | 12.2%
5 | COc1ccc(-c2nc3sc4c(c3c(=O)n2Cc2ccccc2)CCC(Br)C4=O)cc1 (stereo not drawn) [No. 146, 3-Benzyl-7-bromo-2-p-methoxyphenyl-6,7-dihydro-3H,5H-benzo[4,5]thieno[2,3-d]pyrimidine-4,8-dione] | 7.3% | 50.9% | 14.3% | 5.1% | 14.7% | 37.9%
6 | CCCc1nc2sc3c(c2c(=O)n1Cc1ccco1)CCCC3 [No. 101, 3-(Furan-2-ylmethyl)-2-propyl-5,6,7,8-tetrahydro-3H-benzo[4,5]thieno[2,3-d]pyrimidin-4-one] | 14.1% | 26% | 18% | 30% | 5.7% | 7.8%

More lines, now with the values ahead:

Row | inhibition at 1 µM [1] | inhibition at 10 µM [1] | inhibition at 1 µM [2] | inhibition at 10 µM [2] | inhibition at 1 µM [3] | inhibition at 10 µM [3] | SMILES
7 | 4.7% | 11.6% | 0.1% | 19.1% | -2.4% | 4.3% | COc1cc(-c2nc3sc4c(O)c(Br)ccc4c3c(=O)n2Cc2ccccc2)c(Br)c(OC)c1OC [No. 52, 3-benzyl-7-bromo-2-(2-bromo-3,4,5-trimethoxyphenyl)-8-hydroxy-3H-benzo[4,5]thieno[2,3-d]pyrimidin-4-one]
8 | 35% | 76% | 28.1% | 32.9% | 19.3% | 49.8% | COc1cc(-c2nc3sc4c(c3c(=O)n2Cc2ccccc2)C(Br)CCC4=O)cc(OC)c1OC (stereo not drawn) [No. 137, 3-Benzyl-5-bromo-2-(3,4,5-trimethoxyphenyl)-6,7-dihydro-3H,5H-benzo[4,5]thieno[2,3-d]pyrimidine-4,8-dione]
9 | 13.3% | 11.7% | 43.2% | 57.7% | 19.4% | 26.1% | CC(=O)Oc1c(Br)ccc2c1sc1nc(-c3ccccc3)n(Cc3ccccc3)c(=O)c12 [No. 93, Acetic acid 3-benzyl-7-bromo-4-oxo-2-phenyl-3,4-dihydro-benzo[4,5]thieno[2,3-d]pyrimidin-8-yl ester]
